Reference: publication PMC6120666 (The EMBO Journal, 2018)

Columns and labels:
[1] = test system: RAW264.7 cells (TLR4 activation by LPS); experiment: TNF ELISA, LPS-stimulated RAW264.7 cells; format: cell-based, mouse; settings: LPS 10 ng/ml; inhibitor even at 1 μM
Description: Figure EV3 Activity of select CSLP inhibitors in MDP and LPS‐stimulated RAW264.7 macrophages • A, B ELISA measurement of TNF release from RAW264.7 cells treated with MDP (10 μg/ml, 24 h) (A) or LPS (10 ng/ml) (B) and CSLP compounds as indicated. Values are expressed relative to the TNF release in cells treated with MDP without inhibitor (A) or as ng/ml TNF (B). Data information: Data represent the mean ± SEM of 2–3 independent experiments. Statistical significance in (B) is determined in relation to […] samples without inhibitor *P < 0.05, **P < 0.01, n.s., not significant. Two‐tailed unpaired Student's t‐test was used to determine statistical significance. […]
For HEKBlue assay, cells were seeded into clear 96 well plates at 7.5x10^3 cells/well and allowed to attach for 48 h. […] After 8-9 h, absorbance at 620 nm was measured using Victor3V plate reader (Perkin Elmer, Waltham, MA). Values of media-only wells were subtracted and %inhibition for each compound concentration relative to the DMSO/L18-MDP-treated controls were calculated.
Inhibition values + StDev were fitted by non-linear regression using Prism software (GraphPad Software, La Jolla, CA) to calculate IC50 values. […] After induction, 20 μl of media was mixed with 180 μl of QUANTI-Blue reagent (InvivoGen) and incubated at 37 °C for 3-4 h, followed by absorbance measurement at 620 nm. […]

C57Bl6/J mice = experiment: Inhibition of MDP-elicited TNF release in vivo; settings: 10 mg/kg i.p. 30 min before MDP 100 μg/mouse i.p., blood after 4 h
Description: Female 6‐ to 8‐week‐old C57Bl6/J mice (Jackson labs) were administered with the compounds i.p. 30 min prior to the i.p. injections of MDP as previously described (Nachbur et al, 2015). After 4 h, blood was collected by cardiac puncture. 100 μl of serum (diluted twofold) per animal was analyzed using anti‐mouse TNF ELISA (ThermoFisher Scientific).
All mouse experiments were approved by the Tufts University Committee on the Use and Care of Animals and performed according to accepted veterinary standards. Female 6-8-week-old C57Bl6/J mice (Jackson labs) were used for the experiments. Experiments were performed as previously described (Nachbur et al., 2015). Tested compounds were formulated in 6% Captisol formulation, pH 4.0 (100 μl/mouse, 10 mg/kg, Ligand Pharmaceuticals, San Diego, CA). MDP (Bachem, King of Prussia, PA) was dissolved in saline (100 μl/mouse, 100 μg/mouse). Mice were administered with the drugs i.p. 30 min prior to the i.p. injections of MDP. After 4 h, blood was collected by cardiac puncture.
100 μl of serum (diluted 2-fold) per animal was analyzed using anti-mouse TNF ELISA (ThermoFisher […]
Expression and purification of RIPK2 for X-ray crystallography […]

SMILES	TNF release following LPS [1]	MDP-elicited serum TNF levels (C57Bl6/J mice)
CCCS(=O)(=O)Nc1cc(-c2cc(-c3ccc(N4CCNCC4)cc3)cnc2N)cc(OC)c1OC [CSLP43]	neither CSLP37 nor CSLP43 attenuated	
Cc1ccc(-c2nn(C(C)(C)CNC(=O)c3ccncc3)c3ncnc(N)c23)cc1 [WEHI‐345, reference compound]		partial reduction
CCCS(=O)(=O)Nc1cc(-c2cc(-c3ccc(N4CCNCC4)cc3)cnc2N)cc(F)c1OC [CSLP37]	neither CSLP37 nor CSLP43 attenuated	potently reduced
